Reference: the supplement of paper PMC10307832

Columns and labels:
Assay in all cases: relative viability (nuclei count vs DMSO), 5 days (fraction); higher = more cells survive
Ruxolitinib + Alpelisib = compound: N#CC[C@H](C1CCCC1)n1cc(-c2ncnc3[nH]ccc23)cn1 [Ruxolitinib] + Cc1nc(NC(=O)N2CCC[C@H]2C(N)=O)sc1-c1ccnc(C(C)(C)C(F)(F)F)c1 [Alpelisib] (partner 2 µM)
Summary of the method: (§1)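 Lung cancer cell lines were pin-tool dosed in 1536-well plates on the day after seeding, with either a lone drug or a fixed anchor-drug dose plus five library-drug doses (not always all listed) in √10 steps. Nuclei were counted on 4× images after 5 days. Relative viability is the ratio of treated-well to vehicle-well nuclei counts, with each value a median of duplicate plates.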

Ruxolitinib + Tozasertib = compound: N#CC[C@H](C1CCCC1)n1cc(-c2ncnc3[nH]ccc23)cn1 [Ruxolitinib] + Cc1cc(Nc2cc(N3CCN(C)CC3)nc(Sc3ccc(NC(=O)C4CC4)cc3)n2)n[nH]1 [Tozasertib] (partner 0.1 µM)
Summary of the method: as §1

Ruxolitinib + Navitoclax = compound: N#CC[C@H](C1CCCC1)n1cc(-c2ncnc3[nH]ccc23)cn1 [Ruxolitinib] + CC1(C)CCC(c2ccc(Cl)cc2)=C(CN2CCN(c3ccc(C(=O)NS(=O)(=O)c4ccc(N[C@H](CCN5CCOCC5)CSc5ccccc5)c(S(=O)(=O)C(F)(F)F)c4)cc3)CC2)C1 [Navitoclax] (partner 0.5 µM)
Summary of the method: as §1

VE-821 + Navitoclax = compound: CS(=O)(=O)c1ccc(-c2cnc(N)c(C(=O)Nc3ccccc3)n2)cc1 [VE-821] + CC1(C)CCC(c2ccc(Cl)cc2)=C(CN2CCN(c3ccc(C(=O)NS(=O)(=O)c4ccc(N[C@H](CCN5CCOCC5)CSc5ccccc5)c(S(=O)(=O)C(F)(F)F)c4)cc3)CC2)C1 [Navitoclax] (partner 0.5 µM)
Summary of the method: as §1

| Cell Line | relative viability (Ruxolitinib + Alpelisib; first compound 0.08 µM) | relative viability (Ruxolitinib + Alpelisib; first compound 0.253 µM) | relative viability (Ruxolitinib + Alpelisib; first compound 0.8 µM) | relative viability (Ruxolitinib + Alpelisib; first compound 2.53 µM) | relative viability (Ruxolitinib + Alpelisib; first compound 8 µM) | relative viability (Ruxolitinib + Tozasertib; first compound 0.08 µM) | relative viability (Ruxolitinib + Tozasertib; first compound 0.253 µM) | relative viability (Ruxolitinib + Tozasertib; first compound 0.8 µM) | relative viability (Ruxolitinib + Tozasertib; first compound 2.53 µM) | relative viability (Ruxolitinib + Tozasertib; first compound 8 µM) | relative viability (Ruxolitinib + Navitoclax; first compound 0.08 µM) | relative viability (Ruxolitinib + Navitoclax; first compound 0.253 µM) | relative viability (Ruxolitinib + Navitoclax; first compound 0.8 µM) | relative viability (Ruxolitinib + Navitoclax; first compound 2.53 µM) | relative viability (Ruxolitinib + Navitoclax; first compound 8 µM) | relative viability (VE-821 + Navitoclax; first compound 0.08 µM) | relative viability (VE-821 + Navitoclax; first compound 0.253 µM) | relative viability (VE-821 + Navitoclax; first compound 0.8 µM) | relative viability (VE-821 + Navitoclax; first compound 2.53 µM) | relative viability (VE-821 + Navitoclax; first compound 8 µM) |
| --- | --- | --- | --- | --- | --- | --- | --- | --- | --- | --- | --- | --- | --- | --- | --- | --- | --- | --- | --- | --- |
| NCI-H1666 | 0.973 | 0.821 | 1.06 | 0.823 | 1 | 0.596 | 0.579 | 0.587 | 0.585 | 0.521 | 0.876 | 1.01 | 1.1 | 0.759 | 1.07 | 0.98 | 1.01 | 0.939 | 0.875 | 0.703 |
| NCI-H1734 | 0.68 | 0.579 | 0.798 | 0.623 | 0.667 | 0.332 | 0.25 | 0.281 | 0.209 | 0.223 | 0.749 | 0.698 | 0.899 | 0.724 | 0.785 | 1.03 | 0.875 | 0.79 | 0.862 | 0.63 |
| NCI-H1755 | 0.885 | 0.904 | 0.97 | 0.796 | 0.623 | 0.561 | 0.525 | 0.622 | 0.616 | 0.557 | 0.919 | 0.925 | 1 | 0.844 | 0.732 | 1.03 | 0.992 | 0.732 | 0.928 | 0.83 |
| NCI-H1793 | 0.539 | 0.654 | 0.789 | 0.83 | 0.679 | 0.343 | 0.368 | 0.48 | 0.492 | 0.309 | 0.494 | 0.374 | 0.486 | 0.621 | 0.266 | 0.693 | 0.507 | 0.251 | 0.449 | 0.314 |
| NCI-H1915 | 1.06 | 1.04 | 1.11 | 1.04 | 0.966 | 0.462 | 0.434 | 0.464 | 0.398 | 0.419 | 0.79 | 0.838 | 0.791 | 0.731 | 0.691 | 0.8 | 0.81 | 0.826 | 0.79 | 0.678 |
| NCI-H1944 | 0.777 | 0.689 | 0.863 | 0.782 | 0.753 | 0.248 | 0.263 | 0.24 | 0.292 | 0.266 | 0.998 | 0.959 | 1.03 | 0.887 | 0.955 | 1.16 | 0.997 | 0.92 | 1.1 | 0.643 |
| NCI-H1975 | 0.663 | 0.559 | 0.587 | 0.482 | 0.338 | 0.724 | 0.78 | 0.682 | 0.767 | 0.389 | 1.13 | 1.04 | 1.15 | 0.698 | 0.591 | 1 | 1.11 | 0.899 | 1.02 | 0.652 |
| NCI-H1993 | 0.705 | 0.71 | 0.678 | 0.722 | 0.675 | 0.585 | 0.618 | 0.643 | 0.631 | 0.551 | 0.858 | 0.869 | 0.998 | 1.02 | 0.932 | 0.787 | 0.747 | 0.772 | 0.797 | 0.694 |
| NCI-H2009 | 1.11 | 1.17 | 1.12 | 1.01 | 0.903 | 0.781 | 0.754 | 0.853 | 0.717 | 0.578 | 1.2 | 1.2 | 1.16 | 0.961 | 0.897 | 1.16 | 1.13 | 1.13 | 1.26 | 1.16 |
| NCI-H2023 | 0.617 | 0.56 | 0.595 | 0.489 | 0.6 | 0.305 | 0.352 | 0.506 | 0.356 | 0.302 | 1 | 0.94 | 1.08 | 0.939 | 0.855 | 1.01 | 1.02 | 0.808 | 0.686 | 0.296 |
| NCI-H2085 | 0.971 | 1.02 | 1.13 | 0.979 | 0.822 | 0.882 | 0.765 | 0.886 | 0.77 | 0.688 | 1.12 | 1.07 | 1.2 | 1.11 | 0.999 | 1.12 | 1.12 | 1.24 | 1.24 | 1.03 |
| NCI-H2087 | 0.951 | 0.832 | 1.13 | 0.769 | 0.954 | 0.256 | 0.229 | 0.24 | 0.276 | 0.299 | 0.922 | 0.874 | 0.846 | 0.801 | 0.795 | 1.04 | 1.04 | 1.06 | 1.17 | 0.892 |
